These results are taken from patent US6310095A, “Inhibitors of protein isoprenyl transferases” (University of Pittsburgh, priority 1998, dated 2001).

Counter-ions that a name gives are not always drawn.

In the first test the target is T1, protein farnesyltransferase (Rattus norvegicus, UniProt Q02293+Q04631).
T1 construct: Rat brain protein farnesyltransferase activity is measured; from tissue; host or cells: rat brain; purified according to Reiss et al., Cell 62:81-88 (1990), steps one through three
Kind of test: in vitro inhibition of protein farnesyltransferase (scintillation proximity assay, biotin-K Ras B fragment). The format is biochemical. To be noted: at 1 × 10^-5 M. An excerpt:
The ability of the compounds of the invention to inhibit protein farnesyltransferase or protein geranylgeranyltransferase can be measured according to the method of Moores, et al., J. Biol. Chem. 266: 14603 (1991) or the method of Vogt, et al., J. Biol. Chem. 270:660-664 (1995). In addition, procedures for determination of the inhibition of farnesylation of the oncogene protein Ras are described by Goldstein, et al., J. Biol. Chem., 266:15575-15578 (1991) and by Singh in U.S. Pat. No. 5,245,061.
In addition, in vitro inhibition of protein farnesyltransferase may be measured by the following procedure. Rat brain protein farnesyltransferase activity is measured using an Amersham Life Science commercial scintillation proximity assay kit and substituting a biotin-K Ras B fragment (biotin-[…]CO2 H), 0.1 mM final concentration, for the biotin-lamin substrate provided by Amersham. The enzyme is purified according to Reiss, Y., et al., Cell, 62: 81-88 (1990), utilizing steps one through three.
The % inhibition of protein farnesyltransferase was determined for representative compounds of the invention.
The compound `Cc1ccccc1-c1cc(CN(Cc2ccccc2)c2cccnc2)ccc1C(=O)N[C@@H](CCS(C)(=O)=O)C(=O)O` [Example 759, (2S)-2-N-[4-(N-benzyl-N-3-pyridylaminomethyl)-2-(2-methylphenyl)benzoyl]amino-4-methanesulfonylbutanoic acid] had an inhibition at 10 µM of 49%.
On the same count and under the same terms, for `CSCC[C@H](NC(=O)c1ccc(CNCC(C)(C)CN(C)C)cc1-c1ccccc1)C(=O)O` [Example 639] the value was 44%; for `CSCC[C@H](NC(=O)c1ccc(CNC(CO)Cc2ccccc2)cc1-c1ccccc1)C(=O)O` (some centres unmarked) [Example 714], 56%; for `CSCC[C@H](NC(=O)c1ccc(CNc2cccc(O)c2)cc1-c1ccccc1)C(=O)O` [Example 676], 76%.
On to `CSCC[C@H](NC(=O)c1ccc(CNCc2cc(Cl)cc(Cl)c2)cc1-c1ccccc1)C(=O)O` [Example 712], for which the inhibition at 10 µM came out at 69%.

Staying with this test, now noted: at 1 × 10^-6 M.
Take `CCOC[C@H](CC1CCCCC1)OCc1ccc(C(=O)N[C@@H](CCSC)C(=O)O)c(-c2ccccc2C)c1` [Example 525]: the “% inhibition of farnesyltransferase” value is reported as 99%.
On the same count and under the same terms, for `CSCC[C@H](NC(=O)c1ccc(CSCc2ccc(C)cc2)cc1-c1ccccc1C)C(=O)[O-].[Li+]` [Example 556] the value was 99%; for `CSCC[C@H](NC(=O)c1ccc(CN(C(C)C)C(C)(C)Cc2ccccc2)cc1-c1ccccc1C)C(=O)O` [Example 317], 54%.
In the case of `CSCC[C@H](NC(=O)c1ccc(/C=C/CC2CCCCC2)cc1-c1ccccc1C)C(=O)O` [Example 471], the “% inhibition of farnesyltransferase” value was 94%.
In the case of `CSCC[C@H](NC(=O)c1ccc(/C=C/CC(O)c2ccc3ccccc3c2)cc1-c1ccccc1C)C(=O)O` (some centres unmarked) [Example 474], the “% inhibition of farnesyltransferase” value is 92%.
Take `CSCC[C@H](NC(=O)c1ccc(CN2CCN(C(=O)OC(C)(C)C)CC2)cc1-c1ccccc1C)C(=O)O` [Example 866]: the “% inhibition of farnesyltransferase” value came to 62%.
Turning to `CSCC[C@H](NC(=O)c1ccc(CNC(C)(C)CC2CCCCC2)cc1-c1ccccc1C)C(=O)O` [Example 308], the “% inhibition of farnesyltransferase” value is 62%.
Take `CSCC[C@H](NC(=O)c1ccc(CN(C(C)C)C2(Cc3ccccc3)CC2)cc1-c1ccccc1C)C(=O)O` [Example 325]: the “% inhibition of farnesyltransferase” value turned out to be 99%.
The same measure, in the same setting: for `CSCC[C@H](NC(=O)c1ccc(OCCCCOc2ccccc2)cc1-c1ccccc1C)C(=O)O` [Example 568] the value was 93%; for `CSCC[C@H](NC(=O)c1ccc(CSc2nc(O)cc(Cc3ccccc3)n2)cc1-c1ccccc1C)C(=O)O` [Example 744], 84%.
As for `CSCC[C@H](NC(=O)c1ccc(CNC(CC2CCCCC2)C(O)C(O)CC(C)C)cc1-c1ccccc1C)C(=O)O` (some centres unmarked) [Example 529], the “% inhibition of farnesyltransferase” value is on record as 99%.
Same read-out and setting: for `CSCC[C@H](NC(=O)c1ccc(COCc2ccccc2)cc1-c1ccccc1)C(=O)O` [Example 575] the value was 70%.

Still in this test, the particulars now being: at 1 × 10^-6 M; read-out: % inhibition of farnesyltransferase.
For the compound `COc1ccc(CNCc2ccc(C(=O)N[C@@H](CCSC)C(=O)O)c(-c3ccccc3)c2)c(OC)c1` [Example 655], the inhibition at 1 µM was 35%.
With `CCSC[C@H](CC1CCCCC1)NCc1ccc(C(=O)N(C)[C@@H](CCSC)C(=O)O)c(-c2ccccc2C)c1` [Example 765, lithium salt], the inhibition at 1 µM amounted to 76%.
On to `CSCC[C@H](NC(=O)c1ccc(CNc2ccccc2F)cc1-c1ccccc1)C(=O)O` [Example 642], for which the inhibition at 1 µM came to 48%.
Regarding `CSCCC(CO)NCc1ccc(C(=O)N[C@@H](CCSC)C(=O)O)c(-c2ccccc2)c1` (some centres unmarked) [Example 633], the inhibition at 1 µM worked out at 32%.
Take `CSCC[C@H](NC(=O)c1ccc(CN(Cc2cncs2)S(C)(=O)=O)cc1-c1ccccc1C)C(=O)O` [Example 878, N-[4-N-(methanesulfonyl-N-thiazol-2-ylmethyl)aniinomethyl-2-(2-methylphenyl)-benzoyl]methionine]: the inhibition at 1 µM was 95%.
Consider `CSCC[C@H](NC(=O)c1ccc(CNc2ccc(C(O)(C(F)(F)F)C(F)(F)F)cc2)cc1-c1ccccc1)C(=O)O` [Example 693], for which the inhibition at 1 µM was 53%.
The same measure, in the same setting: for `COc1ccccc1CCC(=O)Nc1ccc(C(=O)N[C@@H](CCSC)C(=O)O)c(-c2ccccc2C)c1` [Example 544, N-[4-N-(3-(2-methoxyphenyl)propionoyl)amino-2-(2-methylphenyl)benzoyl]methionine lithium salt] the value was 35%.
As to `CSCC[C@H](NC(=O)c1ccc(CNc2ccc(-c3nc4ccccc4s3)cc2)cc1-c1ccccc1)C(=O)O` [Example 703], the inhibition at 1 µM is 40%.
Turning to `CSCC[C@H](NC(=O)c1ccc(NC(=O)OCc2cncs2)cc1-c1ccccc1C)C(=O)O` [Example 902, N-[4-N-(thiazol-5-ylmethoxycarbonyl)amino-2-(2-methylphenylbenzoyl]methioninelithium salt], the inhibition at 1 µM worked out at 85%.
Turning to `CSCC[C@H](NC(=O)c1ccc(CN(CC23CC4CC(CC(C4)C2)C3)c2ccccc2)cc1-c1ccccc1C)C(=O)O` [Example 510], the inhibition at 1 µM was 84%.

Staying with this test, now noted: at 1 × 10^-7 M.
Turning to `CSCC[C@@H](C(=O)[O-])N(C)C(=O)c1ccc(COCCCC2CCCCC2)cc1-c1ccccc1C.[Li+]` [Example 597], the “% inhibition of farnesyltransferase” value was 75%.
As to `CSCC[C@H](NC(=O)c1ccc(COCC2CCC(c3ccc(Cl)cc3)O2)cc1-c1ccccc1C)C(=O)O` (some centres unmarked) [Example 822], the “% inhibition of farnesyltransferase” value stood at 93%.
As to `CSCC[C@H](NC(=O)c1ccc(C#Cc2cncnc2)cc1-c1ccccc1C)C(=O)[O-].[Li+]` [Example 493], the “% inhibition of farnesyltransferase” value was 51%.
Still for that read-out and setting: next, `CSCC[C@H](NC(=O)c1ccc(CSCC2CCCCC2)cc1-c1ccccc1C)C(=O)[O-].[Li+]` [Example 559]: 96%.

Still in this test, the particulars now being: at 1 × 10^-7 M; read-out: % inhibition of farnesyltransferase.
In the case of `CSCC[C@H](NC(=O)c1ccc(CNC(CC2CCCCC2)CC2CCCCC2)cc1-c1ccccc1C)C(=O)O` [Example 524, N-[4-N-(1,3-dicyclohexylpropan-2-yl)aminomethyl-2-(2-methylphenyl)benzoyl]methionine lithium salt], the inhibition at 0.1 µM was 99%.
With `CSCC[C@H](NC(=O)c1ccc(CN[C@H](CSC(C)(C)C)CC2CCCCC2)cc1-c1ccccc1C)C(=O)O` [Example 622, N-[4-(3-cyclohexyl-1-t-butylthiopropan-2-ylaminomethyl)-2-(2-methylphenyl)benzoyl]methionine Lithium Salt], the inhibition at 0.1 µM worked out at 95%.

The test is the same for the next values; noted with them: at 1 × 10^-8 M.
For the compound `CSCC[C@H](NC(=O)c1ccc(COCc2occc2-c2ccc(Cl)cc2)cc1-c1ccccc1C)C(=O)[O-].[Li+]` [Example 827], the “% inhibition of farnesyltransferase” value came out at 77%.
Still for that read-out and setting: next, `CSCC[C@H](NC(=O)c1ccc(CO[C@H](CSC)CC2CCCCC2)cc1-c1ccccc1C)C(=O)O` [Example 882]: 79%; `CSCC[C@H](NC(=O)c1ccc(COCc2cccc(C(C)C)c2)cc1-c1ccccc1C)C(=O)[O-].[Li+]` [Example 939]: 72%; `CSCC[C@H](NC(=O)c1ccc(CO[C@H](CSC(C)(C)C)CC2CCCCC2)cc1-c1ccccc1C)C(=O)O` [Example 883]: 91%.
Consider `CSCC[C@H](NC(=O)c1ccc(COCc2ccc(-c3ccc(Cl)cc3)o2)cc1-c1ccccc1C)C(=O)NS(=O)(=O)c1ccccc1` [Example 819], for which the “% inhibition of farnesyltransferase” value amounted to 76%.
`CSCC[C@H](NC(=O)c1ccc(COCc2ccccc2Cl)cc1-c1ccccc1C)C(=O)[O-].[Li+]` [Example 930]: the “% inhibition of farnesyltransferase” value turned out to be 66%.

The test is the same for the next values; noted with them: at 1 × 10^-8 M; read-out: % inhibition of farnesyltransferase.
Take `CCCCN(CCc1ccccc1)Cc1ccc(C(=O)N[C@@H](CCSC)C(=O)O)c(-c2ccccc2C)c1` [Example 928, N-[4-(N-Butyl-N-(2-phenylethyl)aminomethyl)-2-(2-methylphenyl)benzoyl]methionine]: the inhibition at 0.01 µM turned out to be 84%.
Turning to `CSCC[C@H](NC(=O)c1ccc(CN(Cc2ccccc2)c2cccc(Cl)c2)cc1-c1ccccc1C)C(=O)O` [Example 847, N-[4-N-(N-benzyl-N(3-chlorophenyl)aminomethyl)-2-(2-methylphenyl)benzoyl]methionine lithium salt], the inhibition at 0.01 µM was determined as 85%.
Take `CSCC[C@H](NC(=O)c1ccc(CN(C)C(CC2CCCCC2)CC2CCCCC2)cc1-c1ccccc1C)C(=O)O` [Example 907, N-[4-(N-(1,3-Dicyclohexylpropan-2-yl)-N-methylaminomethyl)-2-(2-methylphenyl)-benzoyl]methionine]: the inhibition at 0.01 µM came out at 79%.

The test is the same for the next values; noted with them: read-out: % inhibition of farnesyltransferase.
For the compound `CSCC[C@H](NC(=O)c1ccc(CNCc2ccco2)cc1-c1ccccc1)C(=O)O` [Example 302, [4-(2-furylmethylaminomethyl)-2-phenylbenzoyl]methionine lithium salt], the inhibition at 1 µM turned out to be 31%.
In the case of `CSCC[C@H](NC(=O)c1ccc(CN(CCC2CCCCC2)Cc2ccccc2)cc1-c1ccccc1C)C(=O)O` [Example 605, N-[4-(N-benzyl-N-(2-cyclohexylethyl)aminomethyl)-2-(2-methylphenyl)benzoyl]methionine Lithium Salt], the inhibition at 0.01 µM was 68%.
